Results taken from patent publication US11466016B2, “Pharmaceutical compounds” (priority 2018, dated 2022).
Where a name gives a salt, the structure may show the parent alone.

What follows are compounds tested against SHP2 (Homo sapiens (Human), UniProt Q06124) (assay: SHP2 Biochemical Assay (DiFMUP conversion, pIRS1 activating peptide)). Details: not given.
Sequence of SHP2 (Q06124 whole entry): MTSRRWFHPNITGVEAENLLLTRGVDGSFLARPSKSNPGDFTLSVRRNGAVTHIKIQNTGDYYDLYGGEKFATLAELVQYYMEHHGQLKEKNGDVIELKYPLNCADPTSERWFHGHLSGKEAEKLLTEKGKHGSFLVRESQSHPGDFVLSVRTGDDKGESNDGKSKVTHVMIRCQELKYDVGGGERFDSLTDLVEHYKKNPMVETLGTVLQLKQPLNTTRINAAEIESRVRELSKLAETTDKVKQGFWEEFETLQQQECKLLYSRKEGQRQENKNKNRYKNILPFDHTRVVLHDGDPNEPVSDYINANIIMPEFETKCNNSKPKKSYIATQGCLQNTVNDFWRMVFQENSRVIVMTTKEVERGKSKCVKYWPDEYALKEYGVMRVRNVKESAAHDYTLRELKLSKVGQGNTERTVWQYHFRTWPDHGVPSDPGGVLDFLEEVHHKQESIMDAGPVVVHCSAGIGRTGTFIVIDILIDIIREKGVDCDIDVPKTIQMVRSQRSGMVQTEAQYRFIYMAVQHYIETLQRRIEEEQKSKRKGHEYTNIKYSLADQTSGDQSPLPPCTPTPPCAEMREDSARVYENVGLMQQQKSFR
Compound `Cc1nc2ccc(-c3n[nH]c4nc(N5[C@H]6CC[C@@H]5[C@@H](F)[C@@H](N)C6)c(CO)nc34)c(Cl)c2s1` [Example 98, {6-[(1R,2S,3S,5S)-3-amino-2-fluoro-8-azabicyclo[3.2.1]octan-8-yl]-3-(7-chloro-2-methyl-1,3-benzothiazol-6-yl)-1H-pyrazolo[3,4-b]pyrazin-5-yl}methanol] has an IC50 of 4 nM.
`Cn1nc2ccc(-c3c[nH]c4nc(N5[C@H]6CC[C@@H]5[C@@H](F)[C@@H](N)C6)cnc34)c(Cl)c2c1Cl` [Example 104, (1R,2S,3S,5S)-8-[7-(3,4-dichloro-2-methyl-2H-indazol-5-yl)-5H-pyrrolo[2,3-b]pyrazin-3-yl]-2-fluoro-8-azabicyclo[3.2.1]octan-3-amine, hydrochloride] was tested, and the IC50 was 9.5 nM.
With `COc1cnc2ccc(-c3c[nH]c4nc(N5[C@H]6CC[C@@H]5[C@@H](F)[C@@H](N)C6)cnc34)c(Cl)c2n1` [Example 106, (1R,2S,3S,5S)-8-[7-(5-chloro-3-methoxyquinoxalin-6-yl)-5H-pyrrolo[2,3-b]pyrazin-3-yl]-2-fluoro-8-azabicyclo[3.2.1]octan-3-amine, hydrochloride] the IC50 was 22 nM.
With `Cn1nc2ccc(-c3n[nH]c4nc(N5[C@@H]6CC[C@H]5C[C@@H](O)C6)c(CO)nc34)c(Cl)c2c1Cl` [Example 115, endo-8-[3-(3,4-dichloro-2-methyl-2H-indazol-5-yl)-5-(hydroxymethyl)-1H-pyrazolo[3,4-b]pyrazin-6-yl]-8-azabicyclo[3.2.1]octan-3-ol] the “SHP2 (percent at stated concentration)” value was 50%@0.30 uM.
`COc1cnc2ccc(-c3n[nH]c4nc(N5[C@@H]6CC[C@H]5[C@@H](F)[C@@H](N)C6)c(C)nc34)c(Cl)c2n1` [Example 121, (1S,2S,3S,5R)-8-[3-(5-chloro-3-methoxyquinoxalin-6-yl)-5-methyl-1H-pyrazolo[3,4-b]pyrazin-6-yl]-2-fluoro-8-azabicyclo[3.2.1]octan-3-amine] showed an IC50 of 14 nM.

Same assay, conditions: DiFMUP substrate, 0.25 μM pIRS1 peptide, 30 min pre-incubation; average where more than one data point; read-out: SHP2 (IC50)
`COc1cnc2ccc(-c3n[nH]c4nc(N5[C@H]6CC[C@@H]5[C@@H](F)[C@@H](N)C6)c(C)nc34)c(Cl)c2n1` [Example 95, (1R,2S,3S,5S)-8-[3-(5-chloro-3-methoxyquinoxalin-6-yl)-5-methyl-1H-pyrazolo[3,4-b]pyrazin-6-yl]-2-fluoro-8-azabicyclo[3.2.1]octan-3-amine] gave an IC50 of 3 nM.
`Cc1nc2c(-c3ccc4ncc(N(C)C)nc4c3Cl)n[nH]c2nc1N1[C@H]2CC[C@@H]1[C@@H](F)[C@@H](N)C2` [Example 96, 7-{6-[(1R,2S,3S,5S)-3-amino-2-fluoro-8-azabicyclo[3.2.1]octan-8-yl]-5-methyl-1H-pyrazolo[3,4-b]pyrazin-3-yl}-8-chloro-N,N-dimethylquinoxalin-2-amine] showed an IC50 of 4.7 nM.
For `COc1cc2c(Cl)c(-c3n[nH]c4nc(N5[C@H]6CC[C@@H]5[C@@H](F)[C@@H](N)C6)c(CO)nc34)ccc2nc1C` [Example 100, {6-[(1R,2S,3S,5S)-3-amino-2-fluoro-8-azabicyclo[3.2.1]octan-8-yl]-3-(5-chloro-3-methoxy-2-methylquinolin-6-yl)-1H-pyrazolo[3,4-b]pyrazin-5-yl}methanol], the IC50 was 12 nM.
Work on `CC(C)n1cc2c(Cl)c(-c3n[nH]c4nc(N5[C@H]6CC[C@@H]5[C@@H](F)[C@@H](N)C6)c(CO)nc34)ccc2n1` [Example 101, {6-[(1R,2S,3S,5S)-3-amino-2-fluoro-8-azabicyclo[3.2.1]octan-8-yl]-3-[4-chloro-2-(propan-2-yl)-2H-indazol-5-yl]-1H-pyrazolo[3,4-b]pyrazin-5-yl}methanol] yielded an IC50 of 21 nM.
Compound `Cn1nc2ccc(-c3n[nH]c4nc(N5[C@@H]6CC[C@H]5[C@H](F)[C@@H](N)C6)c(CO)nc34)c(Cl)c2c1Cl` [Example 102, {6-[(1S,2R,3S,5R)-3-amino-2-fluoro-8-azabicyclo[3.2.1]octan-8-yl]-3-(3,4-dichloro-2-methyl-2H-indazol-5-yl)-1H-pyrazolo[3,4-b]pyrazin-5-yl}methanol] has an IC50 of 15 nM.
Work on `CCn1nc2ccc(-c3n[nH]c4nc(N5[C@H]6CC[C@@H]5[C@@H](F)[C@@H](N)C6)c(CO)nc34)c(Cl)c2c1Cl` [Example 103, {6-[(1R,2S,3S,5S)-3-amino-2-fluoro-8-azabicyclo[3.2.1]octan-8-yl]-3-(3,4-dichloro-2-ethyl-2H-indazol-5-yl)-1H-pyrazolo[3,4-b]pyrazin-5-yl}methanol] yielded an IC50 of 8.9 nM.
With `Cn1nc2ccc(-c3n[nH]c4nc(N5[C@H]6CC[C@@H]5[C@@H](F)[C@@H](N)C6)c(CO)nc34)c(F)c2c1Br` [Example 105, {6-[(1R,2S,3S,5S)-3-amino-2-fluoro-8-azabicyclo[3.2.1]octan-8-yl]-3-(3-bromo-4-fluoro-2-methyl-2H-indazol-5-yl)-1H-pyrazolo[3,4-b]pyrazin-5-yl}methanol] the IC50 was 8.9 nM.
Compound `COc1cnc2ccc(-c3c[nH]c4nc(N5[C@@H]6CC[C@H]5C[C@@H](N)C6)cnc34)c(Cl)c2n1` [Example 107, endo-8-[7-(5-chloro-3-methoxyquinoxalin-6-yl)-5H-pyrrolo[2,3-b]pyrazin-3-yl]-8-azabicyclo[3.2.1]octan-3-amine, hydrochloride] has an IC50 of 22 nM.
Work on `Cc1c(-c2n[nH]c3nc(N4[C@H]5CC[C@@H]4[C@@H](F)[C@@H](N)C5)c(CO)nc23)ccc2nn(C)c(Cl)c12` [Example 108, {6-[(1R,2S,3S,5S)-3-amino-2-fluoro-8-azabicyclo[3.2.1]octan-8-yl]-3-(3-chloro-2,4-dimethyl-2H-indazol-5-yl)-1H-pyrazolo[3,4-b]pyrazin-5-yl}methanol] yielded an IC50 of 6.6 nM.
In the case of `COc1cnc2ccc(-c3n[nH]c4nc(N5[C@@H]6CC[C@H]5[C@@H](F)[C@@H](N)C6)c(CO)nc34)c(Cl)c2n1` [Example 109, {6-[(1S,2S,3S,5R)-3-amino-2-fluoro-8-azabicyclo[3.2.1]octan-8-yl]-3-(5-chloro-3-methoxyquinoxalin-6-yl)-1H-pyrazolo[3,4-b]pyrazin-5-yl}methanol], the IC50 is reported as 11 nM.
With `Cn1nc2ccc(-c3n[nH]c4nc(N5CCC(C)(N)CC5)c(CO)nc34)c(Cl)c2c1Cl` [Example 110, [6-(4-amino-4-methylpiperidin-1-yl)-3-(3,4-dichloro-2-methyl-2H-indazol-5-yl)-1H-pyrazolo[3,4-b]pyrazin-5-yl]methanol] the IC50 was 7 nM.
`COc1cnc2ccc(-c3n[nH]c4nc(N5[C@@H]6CC[C@H]5CNC6)c(CO)nc34)c(Cl)c2n1` [Example 112, [3-(5-Chloro-3-methoxyquinoxalin-6-yl)-6-{3,8-diazabicyclo[3.2.1]octan-8-yl}-1H-pyrazolo[3,4-b]pyrazin-5-yl]methanol] was tested, and the IC50 was 12 nM.
`COc1cnc2ccc(-c3n[nH]c4nc(N5[C@@H]6CC[C@H]5C[C@@H](N)C6)c(CO)nc34)c(Cl)c2n1` [Example 113, {6-[endo-3-amino-8-azabicyclo[3.2.1]octan-8-yl]-3-(5-chloro-3-methoxyquinoxalin-6-yl)-1H-pyrazolo[3,4-b]pyrazin-5-yl}methanol] gave an IC50 of 7.4 nM.
`N[C@H]1C[C@@H]2CC[C@H]([C@H]1F)N2c1nc2[nH]nc(-c3ccc4ncsc4c3Cl)c2nc1CO` [Example 114, {6-[(1R,2S,3S,5S)-3-amino-2-fluoro-8-azabicyclo[3.2.1]octan-8-yl]-3-(7-chloro-1,3-benzothiazol-6-yl)-1H-pyrazolo[3,4-b]pyrazin-5-yl}methanol] gave an IC50 of 3 nM.
With `Cn1nc2ccc(-c3n[nH]c4nc(N5[C@@H]6CC[C@H]5C[C@@](C)(N)C6)c(CO)nc34)c(Cl)c2c1Cl` [Example 116, {6-[endo-3-amino-3-methyl-8-azabicyclo[3.2.1]octan-8-yl]-3-(3,4-dichloro-2-methyl-2H-indazol-5-yl)-1H-pyrazolo[3,4-b]pyrazin-5-yl}methanol] the IC50 was 7.5 nM.
With `CN(C)c1cnc2ccc(-c3n[nH]c4nc(N5[C@H]6CC[C@@H]5[C@@H](F)[C@@H](N)C6)c(CO)nc34)c(Cl)c2n1` [Example 118, {6-[(1R,2S,3S,5S)-3-amino-2-fluoro-8-azabicyclo[3.2.1]octan-8-yl]-3-[5-chloro-3-(dimethylamino)quinoxalin-6-yl]-1H-pyrazolo[3,4-b]pyrazin-5-yl}methanol] the IC50 was 5.3 nM.
Work on `COc1cnc2ccc(-c3n[nH]c4nc(N5[C@@H]6CC[C@H]5CNC6)c(C)nc34)c(Cl)c2n1` [Example 119, 8-Chloro-7-(6-{3,8-diazabicyclo[3.2.1]octan-8-yl}-5-methyl-1H-pyrazolo[3,4-b]pyrazin-3-yl)-2-methoxyquinoxaline] yielded an IC50 of 14 nM.
In the case of `COc1cnc2ccc(-c3n[nH]c4nc(N5CCC(C)(N)CC5)c(C)nc34)c(Cl)c2n1` [Example 120, 1-[3-(5-chloro-3-methoxyquinoxalin-6-yl)-5-methyl-1H-pyrazolo[3,4-b]pyrazin-6-yl]-4-methylpiperidin-4-amine], the IC50 is reported as 25 nM.
Work on `Cn1nc2ccc(-c3c[nH]c4nc(N5[C@H]6CC[C@@H]5[C@@H](F)[C@@H](N)C6)c(CO)nc34)c(Cl)c2c1Cl` [Example 122, {3-[(1R,2S,3S,5S)-3-amino-2-fluoro-8-azabicyclo[3.2.1]octan-8-yl]-7-(3,4-dichloro-2-methyl-2H-indazol-5-yl)-5H-pyrrolo[2,3-b]pyrazin-2-yl}methanol] yielded an IC50 of 5.2 nM.
`Cc1nc2c(-c3ccc4nn(C)c(C#N)c4c3Cl)n[nH]c2nc1N1[C@H]2CC[C@@H]1[C@@H](F)[C@@H](N)C2` [Example 124, 5-{6-[(1R,2S,3S,5S)-3-amino-2-fluoro-8-azabicyclo[3.2.1]octan-8-yl]-5-methyl-1H-pyrazolo[3,4-b]pyrazin-3-yl}-4-chloro-2-methyl-2H-indazole-3-carbonitrile] showed an IC50 of 8.1 nM.
`Cn1nc2ccc(-c3n[nH]c4nc(N5[C@@H]6CCC[C@H]5CNC6)c(CO)nc34)c(Cl)c2c1Cl` [Example 125] showed an IC50 of 7.1 nM.

Same assay, conditions: at 0.010 uM
`Cc1c2c(Cl)c(-c3n[nH]c4nc(N5[C@H]6CC[C@@H]5[C@@H](F)[C@@H](N)C6)c(CO)nc34)ccc2nn1C` [Example 99, {6-[(1R,2S,3S,5S)-3-amino-2-fluoro-8-azabicyclo[3.2.1]octan-8-yl]-3-(4-chloro-2,3-dimethyl-2H-indazol-5-yl)-1H-pyrazolo[3,4-b]pyrazin-5-yl}methanol] was tested, and the “SHP2 (percent at stated concentration)” value was 45%@0.010 uM.
